Five molecules from PubChem BioAssay (NCI) can be followed below.

Molecules are shown by their SMILES.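 Following 48 hours of exposure in 96-well plates, responses at five concentrations were used to interpolate endpoints linearly. TGI: concentration producing complete growth inhibition.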

Some test systems named below: A549 NSCLC; CCRF-CEM leukemia; EKVX NSCLC; HCC-2998 colon; HCT-116 colon; KM12 colon; LOX IMVI melanoma; MCF7 breast; NCI-H226 lung; OVCAR-3 ovarian; OVCAR-5 ovarian; RXF 393 renal; SK-MEL-2 melanoma; SNB-19 CNS; SNB-78 CNS; U251 CNS; UO-31 renal; ACHN renal; M14 melanoma; TK-10 renal.
What all share (experiment): NCI-60 cell line screen, 48 h

In the case of `CC(C)[C@](O)(C(=O)OCC1CC[N+]2([O-])CC[C@@H](O)C12)[C@H](C)O` (stereo partly drawn), the TGI is over 375 µM in the assay on A549 NSCLC; over 375 µM with CCRF-CEM leukemia; over 375 µM in the assay with EKVX NSCLC; over 375 µM in the assay on HCC-2998 colon; over 256 µM with HCT-116 colon; over 375 µM in the assay on KM12 colon. The TGI was over 203 µM with LOX IMVI melanoma; over 375 µM with MCF7 breast; over 375 µM with NCI-H226 lung; over 375 µM in the assay on OVCAR-3 ovarian; over 375 µM in the assay with OVCAR-5 ovarian; over 375 µM in the assay with RXF 393 renal. Moreover, the TGI in the assay with SK-MEL-2 melanoma is over 317 µM; with SNB-19 CNS it was over 375 µM; with SNB-78 CNS, over 375 µM; in the assay with U251 CNS it was over 375 µM; in the assay on UO-31 renal it was over 375 µM.

For the molecule `CCO[C@]12C[C@H](OC)[C@@]3(O)CC(C1[C@H]3O)C13C4C2[C@H](OC)C1[C@](COC)(CN4CC)[C@H](O)C[C@@H]3OC` (stereo partly drawn), the TGI in the assay with A549 NSCLC, with ACHN renal, in the assay with CCRF-CEM leukemia, in the assay with EKVX NSCLC, with HCC-2998 colon and with HCT-116 colon was over 100 µM throughout. Further, the TGI with LOX IMVI melanoma, with M14 melanoma, with NCI-H226 lung, in the assay with OVCAR-5 ovarian, in the assay on RXF 393 renal and in the assay on SNB-19 CNS was over 100 µM throughout. The TGI with SNB-78 CNS, with TK-10 renal and in the assay with UO-31 renal was over 100 µM throughout.

Regarding `CCCCN1C(=O)NC(Cc2ccccc2)C1=O` (stereo not drawn), the TGI in the assay with A549 NSCLC, in the assay on ACHN renal, with EKVX NSCLC, with HCC-2998 colon, with KM12 colon and in the assay on LOX IMVI melanoma was over 100 µM in each case. The TGI in the assay on M14 melanoma, in the assay with NCI-H226 lung, in the assay with OVCAR-5 ovarian, with RXF 393 renal, in the assay with SK-MEL-2 melanoma and in the assay on SNB-19 CNS was over 100 µM in each case. For the same molecule, the TGI in the assay on SNB-78 CNS, in the assay with TK-10 renal, in the assay on U251 CNS and in the assay with UO-31 renal was over 100 µM each time.

For the molecule `COc1ccc(N2C(=O)C3c4[nH]c5cccc(C)c5c4C4CCC(C(C)(C)C)CC4C3C2=O)cc1` (stereo not drawn), the TGI in the assay on A549 NSCLC, with ACHN renal, with EKVX NSCLC, with HCC-2998 colon, with HCT-116 colon and with KM12 colon was over 10 µM throughout. Moreover, the TGI with LOX IMVI melanoma, with M14 melanoma, in the assay with MCF7 breast, in the assay with NCI-H226 lung, with OVCAR-3 ovarian and in the assay with OVCAR-5 ovarian was over 10 µM throughout. The TGI in the assay with RXF 393 renal, in the assay with SK-MEL-2 melanoma, with SNB-19 CNS, with TK-10 renal, in the assay with U251 CNS and in the assay on UO-31 renal was over 10 µM each time.

With `Cc1ccc(-c2csc(=Nc3c(C)n(C)n(-c4ccccc4)c3=O)n2CCO)cc1`, the TGI in the assay on A549 NSCLC, in the assay with ACHN renal, in the assay with CCRF-CEM leukemia, in the assay with EKVX NSCLC, in the assay on HCC-2998 colon and in the assay on KM12 colon was over 100 µM in each case. Further, the TGI in the assay on M14 melanoma, in the assay on MCF7 breast, with NCI-H226 lung, in the assay on OVCAR-3 ovarian, with OVCAR-5 ovarian and in the assay with RXF 393 renal was over 100 µM in each case. For the same molecule, the TGI in the assay on SK-MEL-2 melanoma, in the assay on SNB-19 CNS, in the assay with TK-10 renal, in the assay on U251 CNS and in the assay on UO-31 renal was over 100 µM in each case.
